Laboratory results as given in patent publication US20030013660A1, “Dioxolane analogs for improved inter-cellular delivery” (Shire BioChem Inc., priority 2000, published 2003).
Where two headings read alike, the source gives them in different places.

Assays:
Assay in all cases: 3H-TdR (3H-thymidine) incorporation assay at 72 hr
H-460 = assay type: cell-based, Human; conditions: 3H-TdR incorporation at 72 hr
MCF-7 = assay type: cell-based, Human; conditions: 3H-TdR incorporation at 72 hr
SF-268 = assay type: cell-based, Human; conditions: 3H-TdR incorporation at 72 hr
CCRF-CEM = assay type: cell-based; conditions: 3H-TdR incorporation at 72 hr
Description: (§1) Table of IC50 Values (μM) for Controls
(§2) Exposition of 24 hr to drug, wash, incubated for another 48 hr (total of 72 hr assay)
(§3) (3H-Thymidine Incorporation Assay)

CEM/dCK- = assay type: cell-based; conditions: for IC50: Homo sapiens, CCRF-CEM, read-out: IC50 CEM/dCK- 24 h, 24 h drug exposure, wash, another 48 hr, deoxycytidine kinase-deficient CCRF-CEM; for Factor* (Resistance Factor = Ratio of dCK- on Wild-type CCRF-CEM): ratio of IC50 CEM/dCK- to CCRF-CEM, 24 h
Description: as §1, §2, §3

[1] = Homo sapiens, NCI-H460, read-out: IC50 H-460 24 h, 24 h drug exposure, wash, another 48 hr
[2] = Homo sapiens, MCF7, read-out: IC50 MCF-7 24 h, 24 h drug exposure, wash, another 48 hr
[3] = Homo sapiens, SF-268, read-out: IC50 SF-268 24 h, 24 h drug exposure, wash, another 48 hr
[4] = Homo sapiens, CCRF-CEM, read-out: IC50 CCRF-CEM 24 h, 24 h drug exposure, wash, another 48 hr

Row | Structure (SMILES) | IC50 (H-460; [1]) | IC50 (MCF-7; [2]) | IC50 (SF-268; [3]) | IC50 (CCRF-CEM; [4]) | IC50 (CEM/dCK-) | Factor* (Resistance Factor = Ratio of dCK- on Wild-type CCRF-CEM) (CEM/dCK-) | IC50 (H-460; read-out: IC50 H-460 24 h, 24 h drug exposure, wash, another 48 hr) | IC50 (MCF-7; read-out: IC50 MCF-7 24 h, 24 h drug exposure, wash, another 48 hr) | IC50 (SF-268; read-out: IC50 SF-268 24 h, 24 h drug exposure, wash, another 48 hr) | IC50 (CCRF-CEM; read-out: IC50 CCRF-CEM 24 h, 24 h drug exposure, wash, another 48 hr)
1 | CCCCCCNC(=O)Nc1ccn([C@@H]2CO[C@H](COC(=O)NCCCCCC)O2)c(=O)n1 [Compound 119, HEXYL-CARBANIC ACID 4- [4-(3-HEXYL-UREIDO)-2- OXO-2#H!-PYRIMIDIN-1- YL]-[1,3]DIOXOLAN-2- YLMETHYL ESTER] | 17000 nM | 27000 nM | 94000 nM | 56000 nM | 96 µM | ˜2 | – | – | – | –
2 | CCCCCCNC(=O)Nc1ccn([C@@H]2CO[C@H](CO)O2)c(=O)n1 [Compound 120, 1-HEXYL-3-[1-(2- HYDROXYMETHYL- [1,3]DIOXOLAN-4-YL)-2- OXO-1,2-DIHYDRO- PYRIMIDIN-4-YL]-UREA] | > 100000 nM | 64000 nM | > 100000 nM | > 100000 nM | > 100 µM | – | – | – | – | –
3 | CCCCCCNC(=O)OC[C@H]1OC[C@@H](n2ccc(N)nc2=O)O1 [Compound 121, HEXYL-CARBAMIC ACID 4- (4-AMINO-2-OXO-2H- PYRIMIDIN-1-YL)- [1,3]DIOXOLAN-2- YLMETHYL ESTER] | 28000 nM | 37000 nM | > 100000 nM | 17000 nM | > 100 µM | >6 | – | – | – | –
4 | CCCCCCOC(=O)OC[C@H]1OC[C@@H](n2ccc(NC(=O)OCc3ccccc3)nc2=O)O1 [Compound 122, CARBONIC ACID 4-(4- BENZYLOXYCARBONYLAMINO- 2-OXO-2H-PYRIMIDIN-1- YL)-[1,3]DIOXOLAN-2- YLMETHYL ESTER HEXYL ESTER] | 1900 nM | 210 nM | 570 nM | 710 nM | 61 µM | 86 | – | – | – | –
5 | COc1ccc(C(OC[C@H]2OC[C@@H](n3ccc(N)nc3=O)O2)(c2ccccc2)c2ccc(OC)cc2)cc1 [Compound 123, 4-AMINO-1-{2-[BIS-(4- METHOXY-PHENYL)-PHENYL- METHOXYMETHYL]- [1,3]DIOXOLAN-4-YL}-1H- PYRIMIDIN-2-ONE] | 1000 nM | 1400 nM | 2000 nM | 870 nM | 15 µM | 17 | – | – | – | –
6 | CC(C)c1ccc(NC(=O)OC[C@H]2OC[C@@H](n3ccc(NC(=O)OCc4ccccc4)nc3=O)O2)cc1 [Compound 124, {1-[2-(4-ISOPROPYL- PHENYLCARBAMOYLOXYMETHY L)-[1,3]DIOXOLAN-4-YL]- 2-OXO-1,2-DIHYDRO- PYRIMIDIN-4-YL}- CARBAMIC ACID BENZYL ESTER] | 13000 nM | 14000 nM | 49000 nM | 14000 nM | 27 µM | ˜2 | – | – | – | –
7 | CC(C)(C)OC(=O)N(CCCCC(C)(C)C(=O)Nc1ccn([C@@H]2CO[C@H](CO)O2)c(=O)n1)Cc1ccccc1 [Compound 125, Benzyl-{5-[1-(2-hydroxymethyl-[1,3]dioxolan-4-yl)-2-oxo-1,2-dihydro-pyrimidin-4-ylcarbamoyl]-5-methyl-hexyl}-carbamic acid tert-butyl ester] | 240 nM | 16 nM | 600 nM | 72 nM | 7 µM | 97 | – | – | – | –
8 | CCCCCCOC(=O)OC[C@H]1OC[C@@H](n2ccc(N)nc2=O)O1 [Compound 126, CARBONIC ACID 4-(4- AMINO-2-OXO-2H- PYRIMIDIN-1-YL)- [1,3]DIOXOLAN-2- YLMETHYL ESTER HEXYL ESTER] | 4.1 nM | 2 nM | 8.5 nM | 1.6 nM | 13 µM | 8,125 | – | – | – | –
9 | CN(C)/C=N/c1ccn([C@@H]2CO[C@H](COC(=O)CC34CC5CC(CC(C5)C3)C4)O2)c(=O)n1 [Compound 129, (2S,4S)-2-(1″- ADMANTANEACETOXY)METHYL -4-(4′-N,N- DIMETHYLAMINOMETHYLENE- CYTOSIN-1′-YL)-1,3- DIOXOLANE] | 150 nM | 20 nM | 200 nM | 72 nM | 15 µM | 208 | – | – | – | –
10 | CN(C)/C=N/c1ccn([C@@H]2CO[C@H](COC(=O)C(c3ccccc3)c3ccccc3)O2)c(=O)n1 [Compound 130, (2S,4S)-2-(2″- DIPHENYLACETOXYMETHYL)- 4-(4′-N,N- DIMETHYLAMINOMETHYLENE- CYTOSIN-1′-YL)-1,3- DIOXOLANE] | 58 nM | 50 nM | 110 nM | 57 nM | 75 µM | 1,316 | – | – | – | –
11 | CC(C)C(NC(=O)OCc1ccccc1)C(=O)OC[C@H]1OC[C@@H](n2ccc(/N=C/N(C)C)nc2=O)O1 (stereo partly drawn) [Compound 131, (2S,4S)-2- (BENZYLOXYCARBONYL-L- VALINOXYMETHYL)-4-(4′- N,N- DIMETHYLAMINOMETHYLENE- CYTOSIN-1′-YL)-1,3- DIOXOLANE] | 110 nM | 100 nM | 12 nM | 21 nM | 83 µM | 3,952 | – | – | – | –
12 | CN(C)/C=N/c1ccn([C@@H]2CO[C@H](COC(=O)C(C)(C)C)O2)c(=O)n1 [Compound 133, 2,2-Dimethyl-propionic acid 4-[4-(dimethylamino-methyleneamino)-2-oxo-2H-pyrimidin-1-yl]-[1,3]dioxolan-2-ylmethyl ester] | 21 nM | 100 nM | 16 nM | 27 nM | 31 µM | 1,148 | – | – | – | –
13 | COc1ccc(C(OC[C@H]2OC[C@@H](n3ccc(N)nc3=O)O2)(c2ccccc2)c2ccccc2)cc1 [Compound 134, 4-AMINO-1-{2-[(4- METHOXY-PHENYL)- DIPHENYL- METHOXYMETHYL]- [1,3]DIOXOLAN-4-YL}-1H- PYRIMIDIN-2-ONE] | 12000 nM | 11000 nM | 3000 nM | 7000 nM | 20 µM | 3 | – | – | – | –
14 | O=c1nc(NC2Sc3ccccc3S2)ccn1[C@@H]1CO[C@H](CO)O1 [Compound 136, 4-(BENZO[1,3]DITHIOL-2- YLAMINO)-1-(2- HYDROXYMETHYL- [1,3]DIOXOLAN-4-YL)- 1H!PYRIMIDIN-2-ONE] | 9000 nM | 12000 nM | 3000 nM | 4000 nM | > 100 µM | >25 | – | – | – | –
15 | Nc1ccn([C@@H]2CO[C@H](COC3Sc4ccccc4S3)O2)c(=O)n1 [Compound 138, 4-AMINO-1-[2- (BENZO[1,3]DITHIOL-2- YLOXYMETHYL)- [1,3]DIOXOLAN-4-YL]-1H- PYRIMIDIN-2-ONE] | 920 nM | 1500 nM | 2100 nM | 530 nM | 58 µM | 109 | – | – | – | –
16 | COC(OC)(OC[C@H]1OC[C@@H](n2ccc(N)nc2=O)O1)c1ccccc1 [Compound 139, 4-AMINO-1-[2- (DIMETHOXY-PHENYL- METHOXYMETHYL)- [1,3]DIOXOLAN-4-YL]-1H- PYRIMIDIN-2-ONE] | 810 nM | 1400 nM | 1300 nM | 400 nM | > 100 µM | >250 | 510 nM | 1700 nM | 1700 nM | 420 nM
17 | CN(Cc1ccccc1)C(=O)OC[C@H]1OC[C@@H](n2ccc(N)nc2=O)O1 [Compound 140, BENZYL-METHYL-CARBAMIC ACID 4-(4-AMINO-2-OXO- 2H-PYRIMIDIN-1-YL)- [1,3]DIOXOLAN-2- YLMETHYL ESTER] | 10000 nM | 20000 nM | 3000 nM | 11000 nM | > 100 µM | >9 | – | – | – | –
18 | CCCCC(OC)(OC)OC[C@H]1OC[C@@H](n2ccc(N)nc2=O)O1 [Compound 141, 4-AMINO-1-[2-(1,1- DIMETHOXY- PENTYLOXYMETHYL)- [1,3]DIOXOLAN-4-YL]-1H- PYRIMIDIN-2-ONE] | 34 nM | 66 nM | 40 nM | 19 nM | 69 µM | 3,632 | – | – | – | –
19 | CN(C)/C=N/c1ccn([C@@H]2CO[C@H](COC(=O)C(C)(C)c3ccccc3)O2)c(=O)n1 [Compound 142, (2S,4S)-2-(2″- DIMETHYLPHENYLACETOXY)M ETHYL-4-(4′-N,N- DIMETHYLAMINOMETHYLENE- CYTOSTN-1,-YL)-1,3- DIOXOLANE] | 38 nM | 29 nM | 130 nM | 7.2 nM | 46 µM | 6,389 | – | – | – | –
